The first test has as its target T1, human LPAR1 (Homo sapiens, UniProt Q92633).
T1 construct: expressed in transfected cells
As to the kind of experiment: Test Example 1: antagonism against response of LPA-induced increase in intracellular Ca2+ concentration in RH7777 cells stably expressing human LPAR1. It is filed as cell-based.
Conditions: not given
As to the method:
(1) Preparation of RH7777 cells stably expressing human LPAR1
The human LPAR1 expression vector was transfected into RH7777 cells to acquire human LPAR1 expressing cells.
(2) Test of antagonism against response of LPA-induced increase in intracellular Ca^2+ concentration
Cells stably expressing human LPAR1 were used for a test of antagonism against response of LPA-induced increase in intracellular Ca^2+ concentration.
The cells were seeded onto the Poly-D-Lysine 96 well black plate and incubated overnight. […] 50 μL of the Basal Buffer (1×HBSS, 20 mM HEPES, 2.5 mM Probenecid, 0.05% BSA, 0.25 mg/mL Amaranth, pH 7.4) containing the test compound was added thereto, followed by incubation at 37° C. for 30 minutes. In FDSS6000 (Hamamatsu Photonics K.K.), LPAs were added, and the change in intracellular Ca^2+ concentration was detected using the fluorescence value of a wavelength of 540 nm by an excitation wavelength of 480 nm as an indicator. […] The Rmax under […] without the test compound was used as the control value. The Rmax under Basal Buffer stimulation with no LPAs or test compounds was used as the basal value.
The percentage (%) of increase in intracellular Ca^2+ concentration was calculated by dividing the value obtained by subtracting the basal value from Rmax in the presence of LPAs and each concentration of the test compound by the value obtained by subtracting the basal value from the control value. The concentration of each test compound was plotted on the X axis and the percentage (%) of increase in intracellular Ca^2+ concentration was plotted on the Y axis, and the IC50 value was calculated by nonlinear regression using XLfit.
T1 sequence (Q92633 whole entry): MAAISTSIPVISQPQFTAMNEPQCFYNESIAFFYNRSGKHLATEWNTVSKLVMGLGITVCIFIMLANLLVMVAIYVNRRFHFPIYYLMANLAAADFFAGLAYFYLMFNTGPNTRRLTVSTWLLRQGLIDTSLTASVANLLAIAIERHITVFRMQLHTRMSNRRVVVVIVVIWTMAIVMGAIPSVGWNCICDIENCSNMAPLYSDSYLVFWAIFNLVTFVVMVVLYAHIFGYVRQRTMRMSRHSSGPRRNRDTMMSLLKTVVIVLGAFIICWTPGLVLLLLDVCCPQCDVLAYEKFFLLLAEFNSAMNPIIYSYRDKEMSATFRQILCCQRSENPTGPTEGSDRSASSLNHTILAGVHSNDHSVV
`COc1cc(C(C)N(CCCCc2ccccc2)C(=O)NC2(C(=O)O)CC(F)(F)C2)cc(OC)c1C` (stereo not shown) [Example 1-66] showed an IC50 of 3.96 nM.

Still in this test, the particulars now being: RH7777 cells stably expressing human LPAR1; Fluo-4 fluorescence, FDSS6000; read-out: IC50 value (concentration producing 50% antagonism against response of LPA-induced increase in intracellular Ca2+ concentration) (converted).
Take `COc1cc(C(CO)N(CCCCc2ccccc2)C(=O)NC2(C(=O)O)CC(F)(F)C2)cc(OC)c1C` (stereo not shown) [Example 3-6]: the IC50 was 7.07 nM.

Regarding `CCOc1cc([C@@H](C)N(CCO[C@@H](C)c2ccccc2)C(=O)NC2(C(=O)O)CCC2)cc(OCC)c1C(C)=O` [Example 4-114], the IC50 was 2.54 nM.

Take `CCOc1cc([C@@H](C)N(CCCCc2ccccc2)C(=O)NC2(C(=O)O)CC(OC)C2)cc(OCC)c1C(C)=O` (stereo partly drawn) [Example 1-85, 1-({[(1R)-1-(4-Acetyl-3,5-Diethoxyphenyl)Ethyl](4-Phenylbutyl) Carbamoyl}Amino)-3-Methoxycyclobutane-1-Carboxylic Acid]: the IC50 was 2.53 nM.

On to `CCOc1c(C(C)=O)ccc([C@@H](C)N(CCCC(F)(F)c2ccccc2)C(=O)NC2(C(=O)O)CCC2)c1C` [Example 4-54], for which the IC50 was 3.75 nM.

Turning to `COc1cc(C(C)N(CCOCc2ccccc2)C(=O)NC2(C(=O)O)CC(OC)C2)cc(OC)c1C1CC1` (stereo not shown) [Example 5-152], the IC50 was 2.36 nM.

In the case of `CCOc1cc([C@@H](C)N(CCCC(F)(F)c2ccccc2)C(=O)NC2(C(=O)O)CC(OC)C2)cc(OCC)c1C(C)O` (single isomer, unassigned) [Example 4-61], the IC50 is 3.99 nM.

For `CCOc1cc([C@@H](C)N(CCC(F)(F)Cc2ccccc2)C(=O)NC2(C(=O)O)CC(OCC)C2)cc(OCC)c1C(C)=O` (stereo partly shown) [Example 4-93], the IC50 was 10.1 nM.

As to `CCOc1cc(C(C)N(CCOC(C)c2ccccc2)C(=O)NC2(C(=O)O)CCC2)c(Cl)c(OCC)c1C(C)=O` (stereo not shown) [Example 5-195], the IC50 is 2.07 nM.

`CCOc1cc([C@@H](C)N(CCCCc2ccc(OC)cc2)C(=O)NC2(C(=O)O)CC(F)(F)C2)cc(OCC)c1C` [Example 4-19]: the IC50 is 60.8 nM.

Turning to `CCOc1c(C(C)=O)ccc([C@@H](C)N(CCCC(F)(F)c2ccccc2)C(=O)NC2(C(=O)O)CC(OCC)C2)c1C` (stereo partly shown) [Example 4-72], the IC50 is 3.34 nM.

Turning to `COc1cc(C(C)N(CCOCc2ccccc2)C(=O)NC2(C(=O)O)CC(F)(F)C2)c(C)c(OC)c1C(C)=O` (stereo not shown) [Example 5-145], the IC50 was 2.43 nM.

As to `CCOc1cc([C@@H](C)N(CCCCc2ccccc2)C(=O)NC2(C(=O)O)CCCCC2)cc(OCC)c1C` [Example 1-118], the IC50 was 42.8 nM.

`COc1cc(C(C)N(CCOCc2ccccc2)C(=O)NC2(C(=O)O)CCC2)cc(OC)c1C1CC1` (stereo not shown) [Example 5-131]: the IC50 is 10.8 nM.

For `CCOc1cc([C@@H](C)N(CCCCc2ccccc2)C(=O)NC2(C(=O)O)CCC2)cc(OCC)c1C(C)=O` [Example 1-20], the IC50 is 0.621 nM.

In the case of `CCOc1cc(C(C)N(CCCCc2ccccc2)C(=O)NC2(CC(=O)O)Cc3ccccc3C2)cc(OCC)c1C` (stereo not shown) [Example 1-147], the IC50 was 40.6 nM.

Regarding `CCOc1cc([C@@H](C)N(CCOCc2ccccc2)C(=O)N[C@]2(C(=O)O)C[C@@H](OCC)C2)c(C)c(OCC)c1C` [Example 5-81], the IC50 is 1.07 nM.

Take `CCOc1c(C(C)=O)ccc([C@@H](C)N(CCCC(F)(F)c2ccccc2)C(=O)NC2(C(=O)O)CC2)c1C` [Example 4-49]: the IC50 is 4.94 nM.

With `CCCCC(NC(=O)N(CCCCc1ccccc1)[C@H](C)c1cc(OCC)c(C)c(OCC)c1)C(=O)O` (stereo partly shown) [Example 1-4], the IC50 was 25.5 nM.

Take `CCOc1cc([C@@H](C)N(CCCCc2ccccc2)C(=O)NC2(C(=O)O)CC(OC)C2)cc(OCC)c1C(C)O` (single isomer, unassigned) [Example 1-88]: the IC50 is 3.35 nM.

As to `CCOc1cc([C@@H](C)N(CCCCc2ccccc2)C(=O)NC2(C(=O)O)CCOCC2)cc(OCC)c1C1(O)CC1` [Example 1-153], the IC50 was 173 nM.

On to `CCOc1cc([C@@H](C)N(CCCCc2ccccc2)C(=O)NC2(CC(=O)O)CCOCC2)cc(OCC)c1C(C)=O` [Example 1-166], for which the IC50 was 11 nM.

As to `CCOc1cc(C(C)N(CCCCc2ccccc2)C(=O)NC2(C(=O)O)CC(F)(F)C2)cc(OC)c1C` (stereo not shown) [Example 1-68], the IC50 was 3.78 nM.

As to `CCOc1cc(C(C)N(CCCCc2ccccc2)C(=O)NC2(C(=O)O)CC(F)(F)C2)cc(O)c1C(C)=O` (stereo not shown) [Example 1-62, 1-({[1-(4-Acetyl-3-Ethoxy-5-Hydroxyphenyl)Ethyl](4-Phenylbutyl) Carbamoyl}Amino)-3,3-Difluorocyclobutane-1-Carboxylic Acid], the IC50 is 6.76 nM.

`COc1cc([C@@H](C)N(CCCCc2ccccc2)C(=O)NC2(C(=O)O)CCCC2)cc(OC)c1C` [Example 1-117]: the IC50 is 16.8 nM.

For `CCOc1cc(C(C)N(CCCCc2ccccc2F)C(=O)NC2(C(=O)O)CC(F)(F)C2)cc(OCC)c1C` (stereo not shown) [Example 4-8], the IC50 was 8.87 nM.

Regarding `CCO[C@H]1C[C@@](NC(=O)N(CCO[C@@H](C)c2ccccc2)C(C)c2cc(OC)c(C(C)=O)c(OC)c2Cl)(C(=O)O)C1` (stereo partly shown) [Example 5-128], the IC50 was 10.3 nM.

In the case of `CCOc1cc([C@@H](C)N(CCCCc2ccccc2)C(=O)NC2(C(=O)O)CC(F)(F)C2)c(Cl)c(OCC)c1C(C)=O` [Example 5-46], the IC50 is 1.36 nM.

For `CCOc1cc([C@@H](C)N(CCO[C@@H](C)c2ccccc2)C(=O)N[C@]2(C(=O)O)C[C@H](OC)C2)c(Cl)c(OCC)c1C(C)O` (single isomer, unassigned) [Example 5-59], the IC50 is 8.01 nM.

With `CCOc1cc([C@@H](C)N(CCC(F)(F)Cc2ccccc2)C(=O)NC2(C(=O)O)CC(OC)C2)c(C)c(OCC)c1C` (stereo partly shown) [Example 5-77], the IC50 was 14 nM.

For `CCOc1cc(C(COC)N(CCCCc2ccccc2)C(=O)NC2(C(=O)O)CC(F)(F)C2)cc(OCC)c1C` (stereo not shown) [Example 3-10], the IC50 is 114 nM.

Turning to `CCOc1cc([C@@H](C)N(CCOC(C)(C)c2ccccc2)C(=O)NC2(C(=O)O)CC(F)(F)C2)cc(OCC)c1C1CC1` [Example 4-160], the IC50 is 10.4 nM.

In the case of `CCNc1cc(C(C)N(CCCCc2ccccc2)C(=O)NC2(C(=O)O)CC(F)(F)C2)cc(OCC)c1C#N` (stereo not shown) [Example 5-114], the IC50 is 4.19 nM.

Regarding `CCOc1cc([C@@H](C)N(Cc2cc3ccccc3[nH]2)C(=O)NC2(C(=O)O)CC(F)(F)C2)cc(OCC)c1C` [Example 4-32], the IC50 was 733 nM.

As to `CCOc1cc(C(C)N(CCCCc2ccccc2)C(=O)NC2(C(=O)O)CC(OCC)C2)cc(OCC)c1C(C)=O` (stereo not shown) [Example 1-96], the IC50 was 2.11 nM.

Regarding `CCOc1cc([C@@H](C)N(CCC(F)(F)Cc2ccccc2)C(=O)NC2(C(=O)O)CC(OCC)C2)cc(OCC)c1C(C)=O` (stereo partly shown) [Example 4-92], the IC50 is 7.79 nM.

As to `COc1cc(C(C)N(CCOCc2ccccc2)C(=O)NC2(C(=O)O)CC(OC)C2)c(C)c(OC)c1C(C)=O` (stereo not shown) [Example 5-154], the IC50 was 4.3 nM.

`COc1cc(CN(CCCCc2ccccc2)C(=O)NCC(C(=O)O)C(C)C)cc(OC)c1C` (stereo not shown) [Example 1-14]: the IC50 was 5690 nM.

On to `CCOc1cc(C(C)N(CCCCc2ccccc2)C(=O)NC2CC(C(=O)O)C2)cc(OCC)c1C(C)=O` (stereo not shown) [Example 1-129], for which the IC50 is 9.98 nM.

With `COc1cc([C@@H](C)N(CCOCc2ccccc2)C(=O)NC2(C(=O)O)CC(F)(F)C2)cc(OC)c1C` [Example 4-164], the IC50 is 3.26 nM.

Regarding `CCOc1cc(C(C)N(CCOCc2ccccc2)C(=O)NC2(C(=O)O)CCC2)c(C)c(OCC)c1C` (stereo not shown) [Example 5-193], the IC50 was 2 nM.

With `CCOc1cc([C@@H](C)N(CCCCc2ccccc2)C(=O)NC2(C(=O)O)CC(OC)C2)cc(OCC)c1C1(O)CC1` (stereo partly shown) [Example 1-90], the IC50 is 9.18 nM.

`CCOc1cc([C@@H](C)N(CCCCc2ccccc2)C(=O)NCCCC(=O)O)cc(OCC)c1C` [Example 1-15]: the IC50 is 280 nM.

Turning to `CCOc1cc(C(C)N(CCCCc2ccccc2)C(=O)NC2CC(C(=O)O)C2)cc(OCC)c1C(C)=O` (stereo not shown) [Example 1-128], the IC50 was 6.38 nM.

Turning to `CCOc1cc([C@@H](C)N(CCCCc2ccccc2)C(=O)NC2(C(=O)O)COC2)cc(OCC)c1C(C)=O` [Example 1-149, 3-({[(1R)-1-(4-Acetyl-3,5-Diethoxyphenyl)Ethyl](4-Phenylbutyl) Carbamoyl}Amino) Oxetane-3-Carboxylic Acid], the IC50 is 2.24 nM.

As to `CCOc1cc([C@@H](C)N(CCCC(F)(F)c2ccccc2)C(=O)NC2(C(=O)O)CCC2)cc(OCC)c1C1CC1` [Example 4-51], the IC50 is 1.11 nM.

With `CCNc1cc(C(C)N(CCCCc2ccccc2)C(=O)NC2(C(=O)O)CCC2)cc(OCC)c1C(C)=O` (stereo not shown) [Example 5-103], the IC50 is 1.71 nM.

Turning to `CCOc1cc(C(C)N(CCOCc2ccccc2)C(=O)NC2(C(=O)O)CC2)c(Cl)c(OCC)c1C(C)=O` (stereo not shown) [Example 5-184], the IC50 is 2.53 nM.

Take `CCOc1cc(C(C)N(CCCCc2ccccc2)C(=O)N[C@]2(C(=O)O)C[C@@H](OC)C2)c(C)c(OCC)c1C(C)=O` (stereo partly shown) [Example 5-198]: the IC50 is 2.9 nM.

For the origin of these results see patent publication US12338203B2 (TAISHO PHARMACEUTICAL CO., LTD., priority 2019, dated 2025).
